Tests used:
Cul1 protein = target: T1, Cul1 protein (Homo sapiens, UniProt Q13616); test: in vivo cross-linking of HEK 293 cells followed by Western blot analysis of Cul1; type: cell-based; settings: inferred from cross-linking of cytoplasmic Cul1 in HEK 293 cells
T1 construct: expressed in transfected cells
Description: (§1) To test the cell permeability and water solubility of CXL-1, in vivo cross-linking of HEK 293 cells, followed by Western blot analysis of the Cul1 protein were performed. The in vivo cross-linking of HEK 293 cells by CXL-1, followed by Western blot analysis was carried out as described previously with minor modifications (Lee et al., Mol. Cell. Proteomics 2010, Electronic preprint. doi:10.1074/mcp.M110.006460.) Briefly, to facilitate the purification of Cul1, a HEK 293-derived stable cell line capable of expressing tagged Cul1 upon tetracycline treatment was constructed using the T-REx™ (Tetracycline-regulated Expression) system (Invitrogen, Carlsbad, Calif.). The tandem tag used here consists of a hexa-histidine sequence and a biotinylation signal sequence (Tagwerker et al., 2006). Biotinylation is catalyzed by endogenous biotin ligases, which are present in all eukaryotic cells (Cronan J. Biol. Chem. 1990, 265, 10327). A specific lysine residue in the biotinylation signal sequence functions as an acceptor site for biotin in vivo (Kulman et al., Protein Expr. Purif. 2007, 52, 320).
Tagged Cul1 was induced with 1.0 μg/mL tetracycline for 4 hours in experiments for in vivo cross-linking. Twenty four hours after induction, cells were subject to in vivo cross-linking by treating 0, 0.1, 0.2, 0.5, and 1.0 mM of CXL-1, respectively, and incubated for 1 h at 37° C. […]

HEK 293 cells = test: cytotoxicity of CXL-1 on cells during in vivo cross-linking; type: cell-based
Description: Tagged Cul1 was induced with 1.0 μg/mL tetracycline for 4 hours in experiments for in vivo cross-linking. Twenty four hours after induction, cells were subject to in vivo cross-linking by treating 0, 0.1, 0.2, 0.5, and 1.0 mM of CXL-1, respectively, and incubated for 1 h at 37° C. After the completion of the cross-linking, cells were lysed for 30 minutes at 4° C. with the lysis buffer (0.050 M HEPES, pH 7.5, 0.0050 M Mg(OAc)2, 0.070 M KOAc, 10% glycerol, and 0.4% IGEPAL CA630). The lysate was centrifuged at 16,600 g at 4° C. for 20 min and the supernatant was used for Western blot analysis.
Cul1 is a ubiquitin ligase that attaches a ubiquitin chain on target substrates for proteasome-catalyzed degradation (Deshaies, R. J. Annu. Rev. Cell Dev. Biol. 1999, 15, 435). Cul1 is a prototype of the cullin ligase family, and constitutes modular ligase complexes with other binding partners. […] Secondly, if cytoplasmic Cul1 protein is cross-linked by CXL-1, the postulated cell permeability and water solubility from the design of CXL-1 can be verified. FIG. 11 depicts the Western blot analysis of cross-linked Cul1 samples acquired from in vivo cross-linking of HEK 293 cells. From the observation of the higher molecular weight band, Cul1 is cross-linked by CXL-1 in a range of approximately 0.5 to 1.0 mM. […] Accordingly, CXL-1 is compatible with the cellular environment for in vivo cross-linking.

[1] = water solubility of CXL-1 verified by in vivo cross-linking; type: physicochemical; settings: PBS; inferred from in vivo cross-linking of Cul1
Description: as §1
Cul1 is a ubiquitin ligase that attaches a ubiquitin chain on target substrates for proteasome-catalyzed degradation (Deshaies, R. J. Annu. Rev. Cell Dev. Biol. 1999, 15, 435). Cul1 is a prototype of the cullin ligase family, and constitutes modular ligase complexes with other binding partners. […]

ubiquitin = target: T2, ubiquitin (Homo sapiens, UniProt P0CG47); test: circular dichroism spectrometry of CXL-1 cross-linked ubiquitin; settings: CD spectra, 0.25 or 1 mM CXL-1, t=0 and t=30 min, 1×PBS pH 7.4 (FIG. 10)
T2 construct: cross-linking of ubiquitin (PDB ID: 1 UBQ)
Description: The CXL-1 cross-linked ubiquitin samples were analyzed by an Aviv Model 62A DS Circular Dichroism (CD) Spectrometer (Lakewood, N.J.) at room temperature. The critical instrumental parameters included: acquisition range=200 to 300 nm, step size=1.00 nm, averaging time=5 s, bandwidth=1 nm, and path length=1 mm. One scan was recorded for each spectrum. For CXL-1 cross-linked samples, 1 to 4 μL of 50 mM CXL-1 stock solution in DMSO was added to 196 to 199 μL of 0.1 mg/mL ubiquitin in 1×PBS pH 7.4 to yield a final concentration of 0.25 to 1 mM CXL-1 in 200 CD spectra were collected upon addition of CXL-1 (t=0) and after 30 min of cross-linking reaction (t=0.5 h).
Circular dichroism (CD) spectrometry is a useful analytical technique for quick investigation of secondary structure, folding, and binding properties of peptides and proteins (Greenfield, N. J. Nat. Protocols 2007, 1, 2876). […] The CD spectra of native ubiquitin were previously recorded, yielding the secondary structure analysis of 6% α-helix, 10% β-sheet and 84% random structures, which can be observed as increasingly negative ellipticity over the range of 225 to 240 nm (Jenson et al., Biochim. Biophys. Acta 1980, 624, 378, the entire contents of which are herein incorporated by reference). […]

T1 sequence (Q13616 whole entry): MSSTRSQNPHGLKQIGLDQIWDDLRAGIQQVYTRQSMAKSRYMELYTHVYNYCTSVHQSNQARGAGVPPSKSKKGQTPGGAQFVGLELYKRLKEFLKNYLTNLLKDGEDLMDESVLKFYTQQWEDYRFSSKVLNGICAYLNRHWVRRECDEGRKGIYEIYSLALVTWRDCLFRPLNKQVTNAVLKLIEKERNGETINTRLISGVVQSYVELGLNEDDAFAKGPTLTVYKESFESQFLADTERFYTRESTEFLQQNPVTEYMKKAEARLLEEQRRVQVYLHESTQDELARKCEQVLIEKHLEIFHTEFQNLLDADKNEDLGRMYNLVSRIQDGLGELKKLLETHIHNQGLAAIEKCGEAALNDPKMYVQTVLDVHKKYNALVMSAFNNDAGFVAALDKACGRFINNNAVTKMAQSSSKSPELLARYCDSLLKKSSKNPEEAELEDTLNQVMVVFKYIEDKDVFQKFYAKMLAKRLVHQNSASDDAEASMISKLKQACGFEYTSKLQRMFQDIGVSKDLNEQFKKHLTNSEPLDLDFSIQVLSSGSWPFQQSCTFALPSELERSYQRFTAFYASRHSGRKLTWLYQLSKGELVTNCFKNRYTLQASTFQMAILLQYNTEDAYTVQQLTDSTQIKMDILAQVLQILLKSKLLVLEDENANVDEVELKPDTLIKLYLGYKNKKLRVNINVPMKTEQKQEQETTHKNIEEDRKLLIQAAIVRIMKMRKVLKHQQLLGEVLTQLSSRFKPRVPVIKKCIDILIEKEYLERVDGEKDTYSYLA

cell permeability (Cul1 protein): cell-permeable | solubility [1]: soluble in PBS | contribution of CXL-1 on ubiquitin secondary structure (ubiquitin): minimal or undetectable
Substance: NHS-activated 2,2′-(hex-5-ynylazanediyl)diacetic acid [CXL-1]
cytotoxic activity on cells (HEK 293 cells; CXL-1 in working concentration ranges): no or minimal cytotoxic activity | cell toxicity (HEK 293 cells; treatment of CXL-1 up to 1 mM, HEK 293 cells, 1 h at 37° C.): did not induce any significant cell toxicity

Source: patent US8778626B2, “Clickable cross-linker” (California Institute of Technology, priority 2010, dated 2014)
